Publication PMC9503459, “Antifungal Activity, Structural Stability, and Immunomodulatory Effects on Human Immune Cells of Defensin from the Lentil Lens culinaris” (Membranes, 2022)
No end group written: not given here.

Tested on: polarized Caco-2 monolayer
Assay: Cytokine response by multiplex xMAP, Caco-2
Format: cell-based, human
Conditions: 2 µM, 24 h
Procedure: Colorectal adenocarcinoma Caco-2 cell line (ATCC HTB-37) was cultured in complete DMEM/F12 (1:1) medium containing 10% fetal bovine serum (FBS, Gibco) and 1X antibiotic-antimycotic solution (1XAAS, Invitrogen, Waltham, MA, USA). The acute monocytic leukemia THP-1 line (ATCC TIB-202) was cultured in complete RPMI-1640 medium, containing 10% FBS, 1XAAS, and […]. THP-1 cells were differentiated into pro-inflammatory macrophages (Mφ1) with phorbol 12-myristate 13-acetate (Sigma-Aldrich) for 24 h and subsequently polarized with lipopolysaccharide from E. coli (Sigma-Aldrich) and rhIFN-γ (Sigma-Aldrich) for another 48 h according to previously reported protocol. All cells were cultured in a humidified CO2 incubator (5% CO2, 37 °C). Primary peripheral blood mononuclear cells (PBMCs) collected from a healthy donor were purchased from American Type Culture Collection (ATCC PCS-800-011). CD4^+ T-helper and CD8^+ T cytotoxic cells were isolated from PBMCs by magnetic separation with mouse anti-human CD4-PE (clone 13B8.2, Beckman Coulter Diagnostics, Pasadena, CA, USA) and CD8-PE (clone REA734, Miltenyi Biotec, Bergisch Gladbach, Germany), Anti-PE MicroBeads (Miltenyi Biotec), and LS Separation Columns (Miltenyi Biotec). Isolated CD4^+ and CD8^+ cells were expanded separately with Dynabeads™ Human T-Expander CD3/CD28 (Gibco, Waltham, MA, USA) in RPMI-1640 supplemented with 10% FBS, 1XAAS and 100 U/mL rh-IL-2 (Gibco). Regulatory CD4^+ FoxP3^+ T cells (Tregs) were isolated from PBMCs by magnetic separation with CD4^+CD25^+ Regulatory T Cell Isolation Kit, human (Miltenyi Biotec). Primary CD14^+ blood monocytes were isolated from PBMCs by adherence according to standard technique. Monocyte-derived mature dendritic cells (moDCs) were obtained from CD14^+ blood monocytes according to the previously reported protocol. Briefly, blood monocytes were incubated in complete RPMI-1640 medium, containing 10% FBS, 1XAAS, 800 U/mL rhGM-CSF (Sci-Store, Russia, Moscow) and 500 U/mL rhIL-4 (Sci-Store) for 3 days. Fresh complete RPMI-1640 medium with rhGM-CSF and rhIL-4 was added to the culture on day 3. On day 5, fresh complete RPMI-1640 containing 100 U/mL rhTNF-α (Sigma) as well as 800 U/mL rhGM-CSF and 500 U/mL rhIL-4 was added and the culture was incubated for another 4 days until full maturation.
Caco-2 cells were seeded into the wells of a 48-well plate, coated with 0.1% bovine collagen (Sigma-Aldrich) for 24 h, 3 weeks before the experiment with complete DMEM/F12 (1:1) medium renewal every 2–3 days. Monocytes, moDCs, CD4^+ T-helper and CD8^+ T cytotoxic cells, Mφ1, and Regulatory CD4^+ FoxP3^+ T cells were seeded into the wells of 48-well plates in the complete RPMI-1640 medium supplemented with 10% Human AB serum (HABS, Capricorn Scientific, Ebsdorfergrund, Germany) and 1XAAS 24 h prior to the experiment; medium in Caco-2-containing wells was also replaced with the same medium. After 24 h, half of the medium in each well was replaced by fresh complete RPMI-1640 medium with 10% HABS, supplemented with 4 µM of Lc-def for the sample wells or fresh medium alone for the control wells. Cell cultures were kept in CO2-incubator (5% CO2, 37 °C) for another 24 h. Culture supernatants were collected 24 h later and stored at −70 °C degrees less than one month prior to the analytes assessment. […]

Lc-def: defensin from lentil Lens culinaris seeds (UniProt:B3F051), recombinant, overexpressed in Escherichia coli (KTCENLSDSFKGPCIPDGNCNKHCKEKEHLLSGRCRDDFRCWCTRNC; disulfide (positions not given here); ends not checked; also: disulfide bonds present, pairing not given here; UniProt B3F051 28-74, looked up)
EGF (Caco-2 monolayer): <1.95↓ pg/ml
Eotaxin (Caco-2 monolayer): <3.23↓ pg/ml
FGF-2 (Caco-2 monolayer): 19.54 pg/mL
FLT-3L (Caco-2 monolayer): <0.45↓ pg/ml
Fractalkine (Caco-2 monolayer): <23.19↓ pg/ml
G-CSF (Caco-2 monolayer): <2.57↓ pg/ml
GM-CSF (Caco-2 monolayer): <1.36↓ pg/ml
GROa (Caco-2 monolayer): 21.87 pg/mL
IFNa2 (Caco-2 monolayer): <4.43↓ pg/ml
IFNg (Caco-2 monolayer): <1.99↓ pg/ml
IL-1RA (Caco-2 monolayer): <0.83↓ pg/ml
IL-1a (Caco-2 monolayer): <3.64↓ pg/ml
IL-1b (Caco-2 monolayer): <18.72↓ pg/ml
IL-2 (Caco-2 monolayer): <0.31↓ pg/ml
IL-3 (Caco-2 monolayer): <0.48↓ pg/ml
IL-4 (Caco-2 monolayer): 11.31 pg/mL
IL-5 (Caco-2 monolayer): <0.24↓ pg/ml
IL-6 (Caco-2 monolayer): 1.45 pg/mL
IL-7 (Caco-2 monolayer): <0.33↓ pg/ml
IL-8 (Caco-2 monolayer): 7.94 pg/mL
IL-9 (Caco-2 monolayer): 11.08 pg/mL
IL-10 (Caco-2 monolayer): <0.68↓ pg/ml
IL-12 (p40) (Caco-2 monolayer): <3.02↓ pg/ml
IL-12 (p70) (Caco-2 monolayer): <1.48↓ pg/ml
IL-13 (Caco-2 monolayer): 42.42 pg/mL
IL-15 (Caco-2 monolayer): <1.45↓ pg/ml
IL-17A (Caco-2 monolayer): <1.55↓ pg/ml
IL-17E/IL-25 (Caco-2 monolayer): <20.59↓ pg/ml
IL-17F (Caco-2 monolayer): <16.96↓ pg/ml
IL-18 (Caco-2 monolayer): <0.35↓ pg/ml
IL-22 (Caco-2 monolayer): 51.96 pg/mL
IL-27 (Caco-2 monolayer): <8.55↓ pg/ml
IP-10 (Caco-2 monolayer): 29.22 pg/mL
M-GSF (Caco-2 monolayer): <23.75↓ pg/ml
MCP-1 (Caco-2 monolayer): <1.52↓ pg/ml
MCP-3 (Caco-2 monolayer): 12.67 pg/mL
MDC (Caco-2 monolayer): <0.35↓ pg/ml
MIG (Caco-2 monolayer): <3.43↓ pg/ml
MIP-1a (Caco-2 monolayer): <1.76↓ pg/ml
MIP-1b (Caco-2 monolayer): <1.92↓ pg/ml
PDGF-AA (Caco-2 monolayer): 541.87 pg/mL
PDGF-AB/BB (Caco-2 monolayer): 188.6 pg/mL
RANTES (Caco-2 monolayer): <0.67↓ pg/ml
TGF-a (Caco-2 monolayer): <0.66↓ pg/ml
TNFa (Caco-2 monolayer): <3.91↓ pg/ml
TNFb (Caco-2 monolayer): 21.23 pg/mL
VEGFa (Caco-2 monolayer): 2653 pg/mL
sCD40L (Caco-2 monolayer): <6.66↓ pg/ml
effect on cytokine production (polarized Caco-2 monolayer): no effect
